Measurements published in US12319655B2, “RAF kinase inhibitors and methods of use thereof” (Deciphera Pharmaceuticals, LLC, priority 2021, dated 2025).
Like-named read-outs stand apart in the source and are kept apart here.

Legend:
[1] = molecular target: B-Raf kinase (SEQ. ID NO: 2) (Homo sapiens (Human), UniProt P15056); experiment: Biochemical Assay for B-Raf (1); conditions: Table J
Outline: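 IC50 derived by four-parameter sigmoidal fit of percent inhibition, normalised to uninhibited and reference-inhibitor controls, using reaction rates over 4–5 h. Coupled spectrophotometric readout (NADH loss at 340 nm, 6 h, 30° C.); 1 mM ATP, 30.1 nM MEK, 0.13 nM B-Raf, pH 7.5 Tris buffer, 1% DMSO.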

[2] = molecular target: C-Raf kinase (SEQ. ID NO: 3) (Homo sapiens (Human), UniProt P04049, Y340D/Y341D); experiment: Biochemical Assay for C-Raf (1); conditions: Table J
Sequence of C-Raf kinase (SEQ. ID NO: 3) (P04049 307-648 Y340D/Y341D): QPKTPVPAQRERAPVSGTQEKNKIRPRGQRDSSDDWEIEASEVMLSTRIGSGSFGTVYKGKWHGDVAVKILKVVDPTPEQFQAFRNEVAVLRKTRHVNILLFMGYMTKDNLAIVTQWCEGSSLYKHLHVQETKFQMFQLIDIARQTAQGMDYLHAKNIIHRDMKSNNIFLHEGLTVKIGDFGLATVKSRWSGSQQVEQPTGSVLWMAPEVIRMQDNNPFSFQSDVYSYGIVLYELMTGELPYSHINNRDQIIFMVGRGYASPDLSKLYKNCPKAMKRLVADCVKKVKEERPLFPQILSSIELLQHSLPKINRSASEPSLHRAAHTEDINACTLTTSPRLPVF
Outline: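 IC50 values come from a four-parameter fit of percent inhibition, using the reaction rate over 4–5 h of a 6 h continuous 340 nm read at 30 °C. The enzyme mix was C-Raf 0.43 nM, MEK substrate 30.1 nM and ATP 1 mM, in a PK/LDH NADH-coupled format in Tris pH 7.5 with 1% DMSO.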

WM3928 cells = experiment: WM3928 Cell Proliferation Assay (1); type: cell-based
Outline: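 IC50 was derived from resazurin fluorescence (ex 540, em 600 nm) after a 6–7 h dye incubation. Before that, cells had 67–72 h of compound exposure at 37 °C, 5% CO2.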

Miapaca-2 cells = experiment: MiaPaca-2 Cell Proliferation Assay (1); type: cell-based; conditions: Homo sapiens, MIA PaCa-2, single agent, read-out: MiaPaca2 (1) IC50
Outline: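 Resazurin was added after compound exposure and incubated 5-6 h, then fluorescence read at 540 nm excitation and 600 nm emission to give IC50.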

[3] = assay version (1), read-out: BRAF (1) IC50
[4] = assay version (1), read-out: CRAF (1) IC50
[5] = biochemical assay (1), read-out: BRAF (1)
[6] = biochemical assay (1), read-out: CRAF (1)

Sequence of B-Raf kinase (SEQ. ID NO: 2) (P15056 416-766): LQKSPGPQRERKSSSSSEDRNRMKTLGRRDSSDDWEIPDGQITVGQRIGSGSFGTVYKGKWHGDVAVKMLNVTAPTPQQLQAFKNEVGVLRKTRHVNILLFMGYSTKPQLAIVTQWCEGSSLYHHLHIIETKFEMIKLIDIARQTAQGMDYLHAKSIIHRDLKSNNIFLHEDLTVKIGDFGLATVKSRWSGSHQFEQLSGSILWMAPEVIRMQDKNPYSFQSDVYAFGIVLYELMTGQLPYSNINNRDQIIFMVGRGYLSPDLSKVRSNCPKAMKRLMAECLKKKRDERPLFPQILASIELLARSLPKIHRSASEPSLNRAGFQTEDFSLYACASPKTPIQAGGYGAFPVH

Row | SMILES | IC50 [1, 3] [nM] | IC50 [2, 4] [nM] | IC50 (WM3928 cells) [nM] | IC50 (Miapaca-2 cells) [nM] | IC50 [1, 5] [nM] | IC50 [2, 6] [nM]
1 | CC(=O)Nc1cc(-c2cc(-c3cc(NC(=O)c4ccnc(C(F)(F)F)c4)ccc3C)nc(N(C)C)n2)ccn1 [Example 41, N-(3-(6-(2-acetamidopyridin-4-yl)-2-(dimethylamino)pyrimidin-4-yl)-4-methylphenyl)-2-(trifluoromethyl)isonicotinamide] | ≤ 100 | ≤ 100 | ≤ 100 | 1000 to 10000 |  | 
2 | CNC(=O)c1cc(-c2cc(-c3cc(NC(=O)c4ccnc(C(F)(F)F)c4)cnc3C)ccn2)ccn1 [Example 42] | 100 to 500 | ≤ 100 | 1000 to 10000 | 1000 to 10000 |  | 
3 | Cc1ccc(NC(=O)c2ccnc(C(C)(C)C#N)c2)cc1-c1cncc(-c2ccnc3c2CC(=O)N3)n1 [Example 43] | ≤ 100 | ≤ 100 | ≤ 100 | 1000 to 10000 |  | 
4 | CNC(=O)c1cc(-c2cc(-c3cc(NC(=O)c4ccnc(C(F)F)c4)ccc3C)ccn2)ccn1 [Example 48] | ≤ 100 | ≤ 100 | 500 to 1000 | 1000 to 10000 |  | 
5 | CNC(=O)c1cc(-c2cc(-c3cc(NC(=O)c4ccnc(C(C)(C)C#N)c4)ccc3C)ccn2)ccn1 [Example 50] | ≤ 100 | ≤ 100 | ≤ 100 | 1000 to 10000 |  | 
6 | CNC(=O)c1cc(-c2cc(-c3cc(NC(=O)c4cccc(C(F)(F)F)c4)cnc3C)ccn2)ccn1 [Example 52] | 100 to 500 | ≤ 100 | 100 to 500 | 1000 to 10000 |  | 
7 | Cc1ccc(NC(=O)c2ccnc(C(F)(F)F)c2)cc1-c1ccnc(-c2ccnc(NC(=O)C3CC3)c2)c1 [Example 54] | ≤ 100 | ≤ 100 | ≤ 100 | 1000 to 10000 |  | 
8 | Cc1ccc(NC(=O)c2ccnc(C(C)(C)C#N)c2)cc1-c1ccnc(-c2ccnc(N)c2)c1 [Example 56] | ≤ 100 | ≤ 100 | 500 to 1000 | 1000 to 10000 |  | 
9 | Cc1ccc(NC(=O)c2ccnc(C(F)(F)F)c2)cc1-c1cccc(-c2ccnc(NC(=O)CC#N)c2)c1 [Example 62] | ≤ 100 | ≤ 100 |  | 1000 to 10000 |  | 
10 | Cc1ccc(NC(=O)c2ccnc(C(C)(C)C#N)c2)cc1-c1ccnc(-c2ccnc(NC(=O)CC#N)c2)c1 [Example 63] | ≤ 100 | ≤ 100 | ≤ 100 | 1000 to 10000 |  | 
11 | CC(=O)Nc1cc(-c2cccc(-c3cc(NC(=O)c4ccnc(C(F)(F)F)c4)cnc3C)c2)ccn1 [Example 64] | ≤ 100 | ≤ 100 |  | 1000 to 10000 |  | 
12 | CC(=O)Nc1cc(-c2cc(-c3cc(NC(=O)c4ccnc(C(F)(F)F)c4)ccc3F)cc(C)n2)ccn1 [Example 65] | ≤ 100 | ≤ 100 |  | 1000 to 10000 |  | 
13 | Cc1ncc(NC(=O)c2ccnc(C(F)(F)F)c2)cc1-c1cccc(-c2ccnc(NC(=O)C3CC3)c2)c1 [Example 70] | ≤ 100 | ≤ 100 |  | 1000 to 10000 |  | 
14 | CNC(=O)c1cc(-c2cccc(-c3cc(NC(=O)c4ccnc(C(F)(F)F)c4)cnc3C)c2)ccn1 [Example 73] | 100 to 500 | ≤ 100 |  | 1000 to 10000 |  | 
15 | CC(=O)Nc1cc(-c2cc(-c3cc(NC(=O)c4ccnc(C(C)(C)C#N)c4)c(F)cc3C)ccn2)ccn1 [Example 75] | ≤ 100 | ≤ 100 |  | 1000 to 10000 |  | 
16 | Cc1cc(F)c(NC(=O)c2ccnc(C(C)(C)C#N)c2)cc1-c1ccnc(-c2ccnc(NC(=O)C3CC3)c2)c1 [Example 76] | ≤ 100 | ≤ 100 |  | 1000 to 10000 |  | 
17 | CC(=O)Nc1cc(-c2cccc(-c3cc(NC(=O)c4ccnc(C(C)(C)C#N)c4)ccc3C)c2)ncn1 [Example 79] | ≤ 100 | ≤ 100 |  | 1000 to 10000 |  | 
18 | CC(=O)Nc1cc(-c2cc(-c3cc(NC(=O)c4ccnc(C(F)(F)F)c4)ccc3C)nc(C)n2)ccn1 [Example 83] | ≤ 100 | ≤ 100 |  | 1000 to 10000 |  | 

Row | SMILES | IC50 [1, 3] [nM] | IC50 [2, 4] [nM] | IC50 (WM3928 cells) [nM] | IC50 (Miapaca-2 cells) [nM] | IC50 [1, 5] [nM] | IC50 [2, 6] [nM]
19 | CC(=O)Nc1cc(-c2cc(-c3cc(NC(=O)c4ccnc(C(F)(F)F)c4)ccc3C)ncn2)ccn1 [Example 84] | ≤ 100 | ≤ 100 |  | 1000 to 10000 |  | 
20 | CC(=O)Nc1cc(-c2cncc(-c3cc(C(=O)Nc4cnn(C(C)C)c4)ccc3C)n2)ccn1 [Example 87] | ≤ 100 | ≤ 100 |  | 1000 to 10000 |  | 
21 | Cc1ccc(NC(=O)c2ccnc(C(F)(F)F)c2)cc1-c1cncc(-c2ccnc(N)c2)n1 [Example 90] | 100 to 500 | ≤ 100 |  | 1000 to 10000 |  | 
22 | CC(=O)Nc1cc(-c2ccnc(-c3cc(NC(=O)c4ccnc(C(F)(F)F)c4)ccc3C)n2)ccn1 [Example 92] | ≤ 100 | ≤ 100 |  | 1000 to 10000 |  | 
23 | COC(=O)Nc1cc(-c2cnnc(-c3cc(NC(=O)c4ccnc(C(C)(C)F)c4)ccc3C)c2)ccn1 [Example 375] |  |  | ≤ 100 |  | ≤ 100 | ≤ 100
24 | CNC(=O)c1cc(-c2ccnc(-c3cc(NC(=O)c4ccnc(C(C)(C)C#N)c4)ccc3C)c2)ccn1 [Example 376] |  |  | 100 to 500 |  | 100 to 500 | ≤ 100
25 | Cc1ccc(NC(=O)c2cc(C3CC3)n(C)n2)cc1-c1cc(-c2ccnc(NC(=O)C3CC3)c2)cnn1 [Example 377] |  |  | ≤ 100 |  | ≤ 100 | ≤ 100
26 | CNC(=O)c1cc(-c2ccnc(-c3cc(NC(=O)c4ccnc(C(C)(C)F)c4)ccc3C)c2)ccn1 [Example 378] |  |  | 100 to 500 |  | 100 to 500 | ≤ 100
27 | Cc1ccc(NC(=O)c2ccnc(C(C)(C)F)c2)cc1-c1cncc(-c2ccnc(C(N)=O)c2)c1 [Example 380] |  |  | ≤ 100 |  | ≤ 100 | ≤ 100
28 | Cc1ncc(NC(=O)c2ccnc(C(C)(C)C#N)c2)cc1-c1cccc(-c2ncnn3cccc23)c1 [Example 385] |  |  | 1000 to 10000 |  | 100 to 500 | 100 to 500
29 | COC(=O)Nc1cc(-c2cc(-c3cc(NC(=O)c4ccnc(C(C)(C)F)c4)c(F)cc3C)cc(C)n2)ccn1 [Example 386] |  |  | 100 to 500 |  | 100 to 500 | ≤ 100
30 | Cc1ccc(NC(=O)[C@H]2CCO[C@@H](C(C)C)C2)cc1-c1cc(-c2ccnc(NC(=O)C3CC3)c2)cnn1 [Example 388] |  |  | 500 to 1000 |  | ≤ 100 | ≤ 100
31 | Cc1ccc(NC(=O)[C@H]2CCO[C@H](C(C)C)C2)cc1-c1cc(-c2ccnc(NC(=O)C3CC3)c2)cnn1 [Example 389] |  |  | 500 to 1000 |  | ≤ 100 | ≤ 100
32 | CNC(=O)c1cc(-c2ccnc(-c3cc(NC(=O)CCC4(F)CC4)ccc3C)c2)ccn1 [Example 392] |  |  | 1000 to 10000 |  | 500 to 1000 | 100 to 500
33 | Cc1cc(F)c(NC(=O)c2ccnc(C(C)(C)F)c2)cc1-c1cncc(-c2ccnc(NC(=O)C3CC3)c2)c1 [Example 399] |  |  | ≤ 100 |  | ≤ 100 | ≤ 100
34 | Cc1ccc(NC(=O)c2ccnc(C(C)(C)F)c2)cc1-c1cc(-c2ccnc3[nH]ncc23)cnn1 [Example 400] |  |  | 1000 to 10000 |  | ≤ 100 | ≤ 100
35 | COC(=O)Nc1cc(-c2cccc(-c3cc(NC(=O)c4ccnc(C(C)(C)F)c4)cnc3C)c2)ccn1 [Example 402] |  |  | 100 to 500 |  | ≤ 100 | ≤ 100
36 | COC(=O)Nc1cc(-c2ccnc(-c3cc(NC(=O)c4ccnc(C(C)(C)F)c4)ccc3C)n2)ccn1 [Example 403] |  |  | ≤ 100 |  | ≤ 100 | ≤ 100
